What all share (assay type): cell-based
One data set deals with RD cells. The experiment in a line: CCK-8 assay. The conditions noted are these: data not shown. On the procedure: (§1) RD cells were seeded in 96-well cell plates (1×10^4/well) and placed in the 5% CO2 incubator for 1 day. Then the cells were treated with peptides for 2 days. 90 μl medium and 10 μl of CCK-8 (BioSharp, BS350B) was added to each well of the 96-well plate, which were incubated at 37° C. for 1 h. A microplate reader (BioTek, Synergy H1) was used to measure the OD value of each well at 450 nm.

The next data set relates to EV-A71 IRES activity. The experiment in a line: Dual-luciferase IRES reporter assay in HEK 293T cells pre-treated with peptides. Particulars: 25 μM for 2 hours, 24 h (FIG. 11A). As for the experimental part: (§2) FIGS. 10A-10K. Peptide S78 inhibited EV-A71 replication and propagation. (FIG. 10A) RD cells were pre-treated with peptides S78 or for 2 hours and infected with EV-A71 at the MOI of 10 for 6 hours. Cell lysates were collected for western blot assay. Hsp27 phosphorylation on Ser 15, 78, 82 were detected by specific antibodies. β-Actin were detected as internal control. (FIG. 10B) Densitometric analysis of FIG. 9A. (FIG. 10C) HEK 293T cells were pre-treated with peptides S78 or S78A at the concentration of 25 μM for 2 hours and then co-transfected with Hsp27-WT plasmid (800 ng), pIRES reporter plasmid (200 ng) and 2A^pro-expressing plasmid or 2AC110A-expressing plasmid (200 ng) for 24 h, then the luciferase activity was measured. (FIG. 10D-10E) RD cells were treated with peptides S78 or S78A and then infected with EV-A71. EV-A71 VP1 were detected. (FIG. 10F) RD cells were treated with peptides and then infected with EV-A71 at the MOI of 1 for 12 hours. The EV-A71-induced CPE was captured. (FIG. 10G-10H) Intracellular viral RNA was extracted and quantified by qPCR. (FIG. 10I) Densitometric analysis FIG. 9D-E. (FIG. 10J) RD cells were treated with peptides S78 or and then infected with EV-A71 at the MOI of 1 for 12 hours. Extracellular viral RNA was extracted and quantified by qPCR. (FIG. 10K) Viral titration was calculated by TCID50. The Statistical analyses were carried out using Student's t-test. *: p<0.05, **: p<0.01, ***: p<0.001. Data are expressed as mean ±SD.
(§3) FIGS. 11A-11G Inhibition of EV-A71 Protein Translation and Viral Reproduction by peptide S82A. (FIG. 11A) HEK 293T cells were pre-treated with peptides NC, S78, S78A, S82A, or S78-3A at the concentration of 25 μM for 2 hours and then co-transfected with Hsp27-WT plasmid (800 ng), pIRES reporter plasmid (200 ng) and 2A^pro-expressing plasmid for 24 h, then the luciferase activity was measured. (FIG. 11B) RD cells were pre-treated with peptides NC at indicated concentrations for 2 hours and infected with EV-A71 at the MOI of 1 for 9 hours. Intracellular viral RNA was extracted and quantified by qPCR. […] EV-A71 VP1 were detected. β-Actin was detected as an internal control. (FIG. 11F) Densitometric analysis of the EV-A71 VP1 level in FIG. S7C-E was quantified and normalized with β-Actin using ImageJ. […] Viral titration was calculated. […] Data are expressed as mean ±SD.
HEK 293T cells were seeded in 24-wells, and then co-transfected with plasmids to simultaneously express 2A^pro (200 ng), pIRES reporter (200 ng), and the wild-type Hsp27 or its mutants (800 ng). […] The Renilla luciferase (RLuc) and Firefly luciferase (FLuc) activity were determined by using a dual-luciferase reporter assay (Promega) according to the manufacturer's instructions in a Lumat LB9507 bioluminometer.

Another data set has as its system EV-A71. In words: Virus titration (TCID50). The conditions noted are these: 25 μM for 2 hours, EV-A71 MOI 0.1 for 24 hours, RD cells (FIG. 11G). On the procedure:
as §2, with “The Statistical analyses were carried out using Student's t-test. *: p<0.05, **: p<0.01, ***: p<0.001.” left out
as §3, with “(FIG. 11B) RD cells were pre-treated with peptides NC at indicated concentrations for 2 hours and infected with EV-A71 at the MOI of 1 for 9 hours.” left out, “±SD. […]” for “±SD.”

The subject of the next data set is EV-A71 VP1. In words: Western blot of EV-A71 VP1 level in RD cells. Particulars: for reduction of VP1 level (densitometric assay): 50 μM; for EV-A71 VP1 protein level (in words): indicated concentrations. As for the experimental part: as §2
FIGS. 11A-11G Inhibition of EV-A71 Protein Translation and Viral Reproduction by peptide S82A. (FIG. 11A) HEK 293T cells were pre-treated with peptides NC, S78, S78A, S82A, or S78-3A at the concentration of 25 μM for 2 hours and then co-transfected with Hsp27-WT plasmid (800 ng), pIRES reporter plasmid (200 ng) and 2A^pro-expressing plasmid for 24 h, then the luciferase activity was measured. (FIG. 11B) RD cells were pre-treated with peptides NC at indicated concentrations for 2 hours and infected with EV-A71 at the MOI of 1 for 9 hours. Intracellular viral RNA was extracted and quantified by qPCR. (FIG. 11C-11E) RD cells were treated with peptides NC, S82A, or S78-3A at indicated concentrations for 2 hours and then infected with EV-A71 at the MOI of 1 for 9 hours. Cell lysates were collected for western blot assay. EV-A71 VP1 were detected. β-Actin was detected as an internal control. (FIG. 11F) Densitometric analysis of the EV-A71 VP1 level in FIG. S7C-E was quantified and normalized with β-Actin using ImageJ. (FIG. 11G) RD cells were treated with peptides S78, S78A, S82A, or S78-3A at the concentration of 25 μM for 2 hours and then infected with EV-A71 at the MOI of 0.1 for 24 hours. Viral titration was calculated. The Statistical analyses were carried out using Student's t-test. *: p<0.05, **: p<0.01, ***: p<0.001. Data are expressed as mean ±SD.
After cell lysis in Nonidet-P40 (NP-40) buffer, the cell lysates were centrifuged, and the concentration was determined by Bradford assay (Bio-Rad). 20 μg of protein was used for 12% SDS-PAGE and transferred onto polyvinylidene fluoride membrane (PVDF) (GE, MA, USA). Following 5% bovine serum albumin (BSA) blocking for 1 hrs, the membrane was incubated with antibodies (1:1000) against Hsp27 (sc-13132), pHsp27-Ser15 (ab76313), pHsp27-Ser78 (ADI-SPA-523), pHsp27-Ser82 (ab155987), VP1 (GTX132339), β-Actin (sc-47778), hnRNP A1 (sc-32301), or GAPDH (sc-32233) overnight in 4° C. After secondary antibodies (HRP-conjugated Affinipure Goat Anti-Mouse IgG(H+L), SA00001-1, and HRP-conjugated Affinipure Goat Anti-Rabbit IgG(H+L), SA00001-2) incubation for 1 hrs, the protein was visualized with a chemiluminescence reagent (PerkinElmer, MA, USA) on Bio-Rad Chemidoc Imaging System. The protein bands were quantified by densitometry with ImageJ if necessary.

Data set [1] relates to Hsp27 and hnRNP A1 redistribution in RD cells. In words: Immunofluorescence colocalization assay of Hsp27/hnRNP A1 redistribution, RD cells with or without EV-A71 infection. The conditions noted are these: 25 μM for 2h; for redistribution of Hsp27 and hnRNP A1 in EV-A71-infected RD cells: EV-A71 MOI 40 for 6h. On the procedure: (§4) The cells on coverslips were infected with EV-A71 at the multiplicity of infection (MOI) of 40 for 6 hrs to assure the high efficiency of viral infection. Then the cells were fixed by 4% paraformaldehyde for 20 min, permeabilized by 0.5% Triton X-100 for 15 min, blocked with 5% BSA for 2 hrs, and stained by incubation with anti-Hsp27 (GTX101145) and anti-hnRNP A1 (sc-32301) antibody, then with Alexa Fluor 488 conjugated anti-rabbit antibody and Alexa Fluor 594 conjugated anti-mouse antibody respectively. After washing four times with 0.2% Triton X-100, the nuclei were stained with DAPI or Hoechst for 5 min. The images were captured by a Nikon A1HD25 High speed and Large Field of View Confocal Microscope. Colocalization analysis was conducted using the JACoP-plugin of the extended ImageJ version Fiji. The M1 colocalization coefficient was computed to illustrate the colocalization levels of Hsp27 and hnRNP A1 overlapped with Hoechst.
Hsp27 is predominantly located in the cytoplasm, however, stress (e.g., heat shock, virus infection) can induce partial redistribution of Hsp27 from the cytoplasm to the nucleus, concomitantly with its phosphorylation. We thus postulated that the cellular redistribution of Hsp27 may be associated with its phosphorylation upon EV-A71 infection. To verify the hypothesis, RD cells were with SB203580 at 0, 2, 4, and 8 μM for 2 h, and the cells were infected with EV-A71 for 6 h. […] The colocalization of Hsp27 and DAPI, which stands for the level of redistribution of Hsp27, was also quantified. The colocalization coefficient M1 was computed as the fraction of Hsp27 colocalized with DAPI in the total Hsp27 area using the JACoP-plugin in FIJI.
We hypothesized that peptides S78 and S82A could interfere with Ser78 phosphorylation while peptides S78A (Ser78 replaced by Ala78) would not affect the phosphorylation of Ser78 of Hsp27. […] RD cells were pre-treated with peptide S78, S78A or S82A at the concentrations of 25 μM for 2h and then infected with or without EV-A71 at an MOI of 40 for 6h.

The nature of another data set: CCK-8 assay. Particulars: human; RD cells, data not shown. As for the experimental part: as §1
In data set [2] the test system is 2Apro-induced relocalization of Hsp27 and hnRNP A1 in RD cells. The experiment in a line: Immunofluorescence colocalization assay of 2Apro-induced relocalization of Hsp27 and hnRNP A1. The conditions noted are these: 25 μM for 2 hours, transfected with 2Apro for 24 hours. As for the experimental part: FIGS. 9A-9B Peptide S78 blocks the 2A^pro-induced relocalization of Hsp27 and hnRNP A1. RD cells on the coverslips were treated with peptides (S78, S78A, and S82A) at the concentration of 25 μM for 2 hours, and then transfected with 2A^pro for 24 hours. The cells were fixed and stained with anti-Hsp27and anti-hnRNPAI, followed by Alexa Fluor 488-conjugated anti-rabbit antibody and Alexa Fluor 594-conjugated anti-mouse antibody. The nuclei were stained with Hoechst. The images were captured by Nikon A1HD25 Confocal Microscope. The JACoP-plugin of the extended ImageJ version Fiji was used to compute the M1 colocalization coefficient, in which (FIG. 9A) is M1 colocalization coefficient for the fraction of Hsp27 in Hoechst and (FIG. 9B) is the M1 colocalization coefficient for the fraction of hnRNP A1 in Hoechst. Statistical analyses were carried out using Student's t-test. *: p<0.05, **: p<0.01, ***: p<0.001. Data are expressed as mean ±SD.
as §4

The values that follow come from patent US20250368687A1, “SHORT SYNTHETIC PEPTIDES AND USES THEREOF IN THE TREATMENT OF ENTEROVIRUS INFECTION” (CITY UNIVERSITY OF HONG KONG, priority 2024, published 2025).

In the case of Ac-RKKRRQRRRAYSRAAAAQLSS-NH2 [S78-3A], in the data set on RD cells, the “CC50 (in words)” value is recorded as “high”. Besides, the “effect on viral IRES activity (in words)” value with EV-A71 IRES activity was “mildly decreased”. The “effect on viral titer (in words)” value in the data set on EV-A71 is on record as “mildly decreased”. Also, in the data set with EV-A71 VP1, the “reduction of VP1 level (densitometric assay)” value is “about 60%” and the “EV-A71 VP1 protein level (in words)” value is on record as “much weaker”. In addition, in data set [1], the “redistribution of Hsp27 and hnRNP A1 in EV-A71-infected RD cells” value was “partially suppressed”.

Turning to Ac-RKKRRQRRRAYSRALSRQLAS-NH2 [S82A], in the data set “CCK-8 assay”, the half-maximal cytotoxic concentration (CC50) at 2 days was greater than 600 µM. In the data set on EV-A71 VP1, the “reduction of VP1 level (densitometric assay)” value is given as greater than 90% and the “EV-A71 VP1 protein level (in words)” value is on record as “a little bit weaker inhibition”. For the same substance, the “redistribution of Hsp27 and hnRNP A1 in EV-A71-infected RD cells” value in data set [1] was “dramatically blocked”. For the same substance, in data set [1] (without EV-A71), the “localization of Hsp27 and hnRNP A1 in mock RD cells” value was “not affected”. Also, the “2Apro-induced relocalization of Hsp27 and hnRNP A1” value in data set [2] is given as “almost completely blocked”.
